The assay deals with 217524-143-R1-J4-PDC spheroids with HUVEC/MSC, viability. The assay is described as follows: Anticancer human tumor 217524-143-R1-J4-PDC patient-derived pancreatic carcinoma cell line growth inhibition [CLK]. The note with it: for viability, T/C: stronger effect = lower value. The text has this: A high-throughput screen of multi-cell type tumor spheroids was designed to identify active combinations of […] and targeted small molecules. Complex spheroids include a stromal component modeled by human endothelial cells (HUVEC) and fibroblasts modeled by human mesenchymal stem cells (MSCs). The concentration ranges selected for each drug and investigational agent were based upon clinically achievable concentrations if the clinical Cmax of the agent was known.
Compounds. The drugs and investigational agents: cirtuvivint (SM08502; NSC835563), CC-671 (NSC850746), vemurafenib (NSC761431), tapotoclax (NSC804041), sotorasib (NSC818433), adagrasib (NSC831453), MRTX-1133 (NSC836407), BAY2416964 (NSC825713), copanlisib (NSC816437), inavolisib (NSC800729), abemaciclib (NSC768073), osimertinib (NSC779217), entinostat (NSC756642), eltanexor (KPT-8602, NSC794443), venetoclax (NSC766270), ceralasertib (NSC777638), bortezomib (NSC756655), olaparib (NSC753686), talazoparib (NSC767125), alisertib (NSC759677), peposertib (NSC802822), gemcitabine (NSC613327), 5-fluorouracil (NSC19893), SN-38 (NSC673596), oxaliplatin (NSC266046), paclitaxel (NSC125973), and doxorubicin (NSC123127), were obtained from the National Cancer Institute (NCI) Developmental Therapeutics Program Chemical Repository. The FDA-approved anticancer drug set is available from the Developmental Therapeutics Program at https://dtp.cancer.gov/organization/dscb/obtaining/available plates.htm. […] The stock solutions were prepared in dimethyl sulfoxide (DMSO, Sigma-Aldrich, St. Louis, MO, cat. D2650), except for the platinum complexes which were prepared in saline (Quality Biological, Gaithersburg, MD, cat. 114-055-101), at 800-fold the tested concentration and stored at -70 degrees C prior to their use. All drugs and investigational agents were tested over a range starting from a high concentration at or near the clinical Cmax and decreasing in half-log increments. If the clinical Cmax for an agent had not been determined, the highest concentration tested was 10 microM.
Cell Culture. All cells were maintained in an incubator at 37 degrees C and 5% CO2 with 95% humidity. The PDC lines were cultured according to standard operating procedures established by the NCI PDMR. Briefly, all PDCs were thawed and cultured in Matrigel-coated flasks prepared with a working solution of 1X Ham's F-12 nutrient mix, without supplementation (Invitrogen, Waltham, MA, cat. 11765054), 100 U/mL penicillin-streptomycin (Invitrogen, cat. 15140122), and 2.5% Matrigel (Corning Inc., Corning, NY, cat. 354248) for the first three passages. The 947758-054-R-J2-PDC line was cultured in 6B/Colon 1A media, which includes advanced DMEM/F-12 (Thermo Fisher Scientific, cat. 12634028), 10 mM HEPES (Thermo Fisher Scientific, cat. 15630080), 1X GlutaMAX supplement (Thermo Fisher Scientific, cat. 35050061), 0.1 mg/mL primocin (InvivoGen, cat. ant-pm-2), 10% defined fetal bovine serum, heat inactivated (HyClone Laboratories Inc., cat. SH30070.03HI), 1.25 mM N-Acetyl-L-cysteine (Sigma-Aldrich, cat. A9165), 10 mM nicotinamide (Sigma-Aldrich, cat. N0636), 1X B-27 supplement (Thermo Fisher Scientific, cat. 17504044), 1X N-2 supplement (Thermo Fisher Scientific, cat. 17502048), and 10 microM Y-27632 dihydrochloride (Tocris Bioscience, cat. 1254). The 876862-298-R-J1-PDC was cultured in 6E media, which includes all 6B/Colon 1A media components plus 50% L-WRN conditioned media (ATCC, cat. CRL-3276), 50 ng/mL recombinant human EGF recombinant protein (hEGF; Thermo Fisher Scientific, cat. PHG0311), 10 ng/mL recombinant human fibroblast growth factor 10 (hGFG-10; PeproTech, cat. 100-26), 1 ng/mL recombinant human fibroblast growth factor 2 (hFGF-2; PeproTech, cat. 100-18B), and 1 µM prostaglandin E2 (PGE2; Tocris, cat. 2296). The 227483-062-R1-J1-PDC line was cultured in Panc media, containing all 6E components except hFGF-2, with the addition of 500 nM SB-431542 (Selleckchem, cat. S1067) and 10 nM gastrin (Tocris, cat. 3006). […]

Where “and” joins values, the source holds several entries; their conditions need not be identical. Identical values can stand only once.
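Further: spheroids exposed to agents for seven days before reading.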

As for `C#Cc1c(F)ccc2cc(O)cc(-c3ncc4c(N5CC6CCC(C5)N6)nc(OCC56CCCN5CC(F)C6)nc4c3F)c12` (configuration not stated), the viability, T/C is 101% and 98% (compound 0.0316 µM); 81.7% and 90.2% (compound 0.1 µM); 88.5% and 86.4% (compound 0.316 µM); 85% and 85.9% (compound 1 µM); 86.7% and 68% (compound 3.16 µM); 59% and 77.1% (compound 10 µM). Further, the IC50 (curve of compound) is greater than 10000 nM.

Turning to `C=C(F)C(=O)N1CCN(c2nc(OCC3CCCN3C)nc3c2CCN(c2cccc4cccc(Cl)c24)C3)CC1CC#N` (configuration not stated), the viability, T/C by setting is: (compound 0.0316 µM) 91.8% and 102%; (compound 0.1 µM) 113% and 96.7%; (compound 0.316 µM) 109% and 106%; (compound 1 µM) 73.5% and 108%; (compound 3.16 µM) 85.6% and 87.4%; (compound 10 µM) 3.02% and 4.54%. Also, the IC50 (curve of compound) is 4870 nM and 5320 nM.

As to `C=CC(=O)N1CCN(c2nc(=O)n(-c3c(C)ccnc3C(C)C)c3nc(-c4c(O)cccc4F)c(F)cc23)C(C)C1` (configuration not stated), the viability, T/C is, setting by setting: (compound 0.0316 µM) 98.7% and 109%; (compound 0.1 µM) 72.6% and 98%; (compound 0.316 µM) 78.3% and 113%; (compound 1 µM) 96.4% and 111%; (compound 3.16 µM) 126% and 111%; (compound 10 µM) 103%. Further, the IC50 (curve of compound) was greater than 10000 nM.

On to `C=CC(=O)Nc1cc(Nc2nccc(-c3cn(C)c4ccccc34)n2)c(OC)cc1N(C)CCN(C)C`, for which the viability, T/C runs as follows: (compound 0.000949 µM) 106% and 100%; (compound 0.003 µM) 83.4% and 96.4%; (compound 0.00949 µM) 100% and 92.1%; (compound 0.03 µM) 90.3% and 81.1%; (compound 0.0949 µM) 57.1% and 43.5%; (compound 0.3 µM) 35.3% and 33.1%. Moreover, for the setting “curve of compound”, the IC50 was 137 nM and 78.7 nM.

With `CC(C)CC(NC(=O)C(Cc1ccccc1)NC(=O)c1cnccn1)B(O)O` (configuration not stated), the viability, T/C by setting is: (compound 0.000949 µM) 107% and 103%; (compound 0.003 µM) 68% and 61.1%; (compound 0.00949 µM) 27% and 19.8%; (compound 0.03 µM) 10.3% and 6.71%; (compound 0.0949 µM) 6.69% and 3.3%; (compound 0.3 µM) 2.39% and 1.64%. For the same molecule, the IC50 (curve of compound) was 4.99 nM and 4.09 nM.

Regarding `CC(CO)NC(=O)c1cc(-c2ccc(Cl)cc2)nn(-c2cnn(C)c2)c1=O` (configuration not stated), the viability, T/C by setting is: (compound 0.0316 µM) 110% and 92.8%; (compound 0.1 µM) 94.5% and 72.6%; (compound 0.316 µM) 91.5% and 92.9%; (compound 1 µM) 89.1% and 89.9%; (compound 3.16 µM) 106% and 95.8%; (compound 10 µM) 78.1% and 85.5%. The IC50 (curve of compound) is greater than 10000 nM.

Turning to `CC(Nc1ccc2c(c1)OCCn1cc(N3C(=O)OCC3C(F)F)nc1-2)C(N)=O` (configuration not stated), the viability, T/C is, setting by setting: (compound 0.0316 µM) 77.3% and 57.6%; (compound 0.1 µM) 36% and 29.8%; (compound 0.316 µM) 16.3% and 11.6%; (compound 1 µM) 8.54% and 7.09%; (compound 3.16 µM) 6.58% and 6.55%; (compound 10 µM) 4.15% and 4.2%. For the same molecule, the IC50 (curve of compound) was 67.6 nM and 43.3 nM.

In the case of `CCCS(=O)(=O)Nc1ccc(F)c(C(=O)c2c[nH]c3ncc(-c4ccc(Cl)cc4)cc23)c1F`, the viability, T/C was 111% and 94.5% (compound 0.0316 µM); 110% and 95% (compound 0.1 µM); 109% and 117% (compound 0.316 µM); 138% and 127% (compound 1 µM); 144% and 134% (compound 3.16 µM); 59.8% and 57% (compound 10 µM). In addition, the IC50 (curve of compound) was greater than 10000 nM.

For the molecule `CCN1CCN(Cc2ccc(Nc3ncc(F)c(-c4cc(F)c5nc(C)n(C(C)C)c5c4)n3)nc2)CC1`, the viability, T/C (compound 0.00316 µM) was 104% and 92.1%; the viability, T/C (compound 0.01 µM) is 74.8% and 70.1%; the viability, T/C (compound 0.0316 µM) was 90.5% and 66.1%; the viability, T/C (compound 0.1 µM) was 61.9% and 40.7%; the viability, T/C (compound 0.316 µM) is 40.3% and 33.4%; the viability, T/C (compound 1 µM) is 44% and 39.1%. Under “curve of compound”, the IC50 is 200 nM and 64 nM.

As for `CCc1c2c(nc3ccc(O)cc13)-c1cc3c(c(=O)n1C2)COC(=O)[C@]3(O)CC`, the viability, T/C is 51.5% and 55.3% (compound 0.00316 µM); 42% and 40.3% (compound 0.01 µM); 33.3% and 33.9% (compound 0.0316 µM); 26.8% and 28.3% (compound 0.1 µM); 20.4% and 16.5% (compound 0.316 µM); 5.13% and 2.88% (compound 1 µM). The IC50 (curve of compound) was 3.31 nM and 4.7 nM.

As to `CNC(=O)c1ccc(Nc2nc(OC3CCCC3)c3c(-c4ccc5nc(C)oc5c4)c[nH]c3n2)c(OC)c1`, the viability, T/C by setting is: (compound 0.0316 µM) 91.6% [middle of 12 runs]; (compound 0.1 µM) 46.5% [middle of 12 runs]; (compound 0.316 µM) 37.7% [middle of 12 runs]; (compound 1 µM) 31.2% [middle of 12 runs]; (compound 3.16 µM) 27.4% [middle of 12 runs]; (compound 10 µM) 27.3% [middle of 12 runs]. The IC50 (compound alone, run of 08/01/2023) was 96.4 nM [middle of 12 runs].

Take `COC1C=CCC(C)C(C)S(=O)(=O)NC(=O)c2ccc3c(c2)N(CC2CCC21)CC1(CCCc2cc(Cl)ccc21)CO3` (configuration not stated): the viability, T/C (compound 0.0316 µM) is 93.3% and 85.4%; the viability, T/C (compound 0.1 µM) was 112% and 93.6%; the viability, T/C (compound 0.316 µM) was 112%; the viability, T/C (compound 1 µM) is 123% and 108%; the viability, T/C (compound 3.16 µM) was 125% and 110%; the viability, T/C (compound 10 µM) was 26.2% and 28.4%. Moreover, where the note is “curve of compound”, the IC50 was 7310 nM and 7140 nM.

As to `COc1c(OCCCN2CCOCC2)ccc2c3n(c(=NC(=O)c4cnc(N)nc4)nc12)CCN3`, the viability, T/C by setting is: (compound 0.00316 µM) 74.2% and 71.6%; (compound 0.01 µM) 39.2% and 27.7%; (compound 0.0316 µM) 16.1% and 11.7%; (compound 0.1 µM) 5% and 4.43%; (compound 0.316 µM) 2.63% and 3%; (compound 1 µM) 2.47% and 2.32%. For the setting “curve of compound”, the IC50 is 7.04 nM and 5.59 nM.

For the molecule `Cn1ncnc1[C@H]1c2n[nH]c(=O)c3cc(F)cc(c23)N[C@@H]1c1ccc(F)cc1`, the viability, T/C is 101% and 96.4% (compound 0.000316 µM); 93.3% and 90.1% (compound 0.001 µM); 103% and 102% (compound 0.00316 µM); 85.5% and 93.6% (compound 0.01 µM); 113% and 106% (compound 0.0316 µM); 102% and 83.5% (compound 0.1 µM). In addition, the IC50 (curve of compound) is greater than 100 nM.

In the case of `NC(=O)C(=Cn1cnc(-c2cc(C(F)(F)F)cc(C(F)(F)F)c2)n1)c1cncnc1`, the viability, T/C was 73.8% and 67.8% (compound 0.00949 µM); 49.3% and 36.5% (compound 0.03 µM); 27.8% and 21.1% (compound 0.0949 µM); 21.7% and 27.9% (compound 0.3 µM); 25.6% and 28.4% (compound 0.949 µM); 23.2% and 20.4% (compound 3 µM). Also, the IC50 (curve of compound) was 29 nM and 18.2 nM.

As for `Nc1ccccc1NC(=O)c1ccc(CNC(=O)OCc2cccnc2)cc1`, the viability, T/C by setting is: (compound 0.0316 µM) 112% and 117%; (compound 0.1 µM) 102% and 93.9%; (compound 0.316 µM) 97.4% and 104%; (compound 1 µM) 89.9% and 98.1%; (compound 3.16 µM) 61.6% and 70.6%; (compound 10 µM) 31.1% and 34.7%. Further, the IC50 (curve of compound) was 5090 nM and 6150 nM.

As usually defined, the viability, T/C is the ratio of treated to control. Usually IC50 stands for the concentration at which inhibition is half-maximal.

The record behind these values is PubChem BioAssay AID2060624 (Molecular Pharmacology Branch, DTP, NCI, 2025).
